Experimental data taken from paper PMC5031696, “Synthesis, Biodistribution and In vitro Evaluation of Brain Permeable High Affinity Type 2 Cannabinoid Receptor Agonists [^11C]MA2 and [^18F]MA3” (Frontiers in Neuroscience, 2016).
Where “and” joins values, the source holds several entries; their conditions need not be identical. Identical values can stand only once.

Columns and labels:
[1] = design: method as in Horti et al., 2010; conditions: rat brain, 2 min post injection; ref Horti et al., 2010; cited from earlier work
[2] = biodistribution studies in male NMRI mice; type: in vivo, mouse; conditions: NMRI mice; for % ID bladder + urine / % ID blood / SUV blood / % ID brain / SUV brain / % ID heart / SUV heart / % ID intestines / % ID kidneys / SUV kidneys / % ID liver / SUV liver / % ID lungs / SUV lungs / % ID pancreas / SUV pancreas / % ID spleen / SUV spleen / % ID stomach: i.v.
Experimental: The tissue distribution and kinetics of [^11C]MA2 and [^18F]MA3 were studied in male NMRI mice at 2, 10, 30, and 60 min post injection of the tracer. The results of the biodistribution studies are presented in Table 1 ([^11C]MA2) and Table 2 ([^18F]MA3) as percentage of injected dose (% ID) and standard uptake value (SUV).
The biodistribution of [^11C]MA2 and [^18F]MA3 was studied in normal male Naval Medical Research Institute (NMRI) mice. A solution of HPLC-purified [^11C]MA2 or [^18F]MA3 was diluted with saline to obtain an ethanol concentration < 10%. Mice were anesthetized with isoflurane (2% in oxygen) and injected intravenously (i.v.) with [^11C]MA2 (~ 9.25 MBq) or [^18F]MA3 (~ 0.92 MBq) via a lateral tail vein. The mice were sacrificed by decapitation at 2, and 60 min post injection (for [^11C]MA2, n = 4) and at 2, 10, 30, or 60 min post injection (for [^18F]MA3, n = 3 or 4 per time point) and dissected. Blood, organs, and other body parts were collected in tared tubes and the radioactivity in each tube was measured using an automated gamma counter. The tubes containing selected organs and blood were weighed. For calculation of total radioactivity in blood, blood mass was assumed to be 7% of the body mass (Fritzberg et al., [1982]). Quantitative data are expressed as mean ± standard deviation (SD). Means were compared using an unpaired two-tailed student t-test. Values were considered statistically significant for P ≤ 0.05.

[3] = plasma radiometabolite analysis; type: in vivo; conditions: mouse plasma, average of 2 assays
Experimental: The fraction of radiometabolites in mouse plasma at 2 and 30 min after injection of the tracer was determined by RP-HPLC analysis to investigate the in vivo stability of [^11C]MA2. […] At 2 min post injection of [^11C]MA2, 88% (n = 2) of the recovered radioactivity was assigned to the intact parent tracer. The percentage of intact [^11C]MA2 decreased to 34% at 30 min post injection of the tracer. All detected radiometabolites were more polar than the intact tracer.
After i.v. administration of [^11C]MA2 (~ 9.25 MBq) via a lateral tail vein to anesthetized NMRI mice (isoflurane 2% in oxygen), the mice were decapitated at 2 or 30 min post injection (n = 2 per time point). […] The isolated plasma was spiked with authentic non-radioactive MA2 (15 μL of 1 mg/mL solution in CH3CN) and analyzed by RP-HPLC on a Chromolith RP C18 column (3 mm x 100 mm; Merck) eluted with gradient mixtures of CH3CN (A) and 0.05 M NaOAc pH 5.5 (B) (0–5 min: Isocratic 100% B, flow rate of 0.5 mL/min; 5–10 min: Linear gradient 100 B to 10% B, flow rate of 1 mL/min; 10–13 min: Isocratic 10% B, flow rate of 1 mL/min; 13–13.1 min: Linear gradient 10 B to 100% B, flow rate of 0.5 mL/min; 13.1–15 min: Isocratic 100% B, flow rate of 0.5 mL/min). […] The radioactivity in all fractions was measured using an automated gamma counter. […]

CB2 = system: CB2; design: method as in Evens et al., 2011; conditions: ref Evens et al., 2011; cited from earlier work

In the case of `Cc1sc(=NC(=O)C2C(C)(C)C2(C)C)n(CCO[11CH3])c1C` [[^11C]A-836339], the SUV in brain [1] is given as ~ 0.5.
For `[11CH3]Oc1ccc2ncc(NCCCc3nc(-c4ccc(F)cc4Cl)no3)cc2c1` [[^11C]MA2], the “accumulation in the spleen” value [2] was “no accumulation”, the “% ID bladder + urine” value ([2]; 2 min post injection) was 0.2 ± 0.1 % ID and the “% ID bladder + urine” value ([2]; 60 min post injection) was 4.5 % ID and 4.5 ± 1.0 % ID. The “% ID blood” value ([2]; 2 min post injection) was 5.8 ± 0.4 % ID, the SUV blood ([2]; 2 min post injection) was 0.8 ± 0.1 and the “% ID blood” value ([2]; 60 min post injection) was 0.7 ± 0.1 % ID. The SUV blood ([2]; 60 min post injection) was 0.1 ± 0.0, the “% ID brain” value ([2]; 2 min post injection) was 1.6 % ID and 1.6 ± 0.5 % ID and the SUV brain ([2]; 2 min post injection) was 1.8 ± 0.2. The “% ID brain” value ([2]; 60 min post injection) was 0.1 ± 0.0 % ID, the SUV brain ([2]; 60 min post injection) was 0.1 ± 0.0 and the “blood % ID 2 min/60 min ratio” value ([2]; clearance from blood) was 8.6. The “% ID heart” value ([2]; 2 min post injection) was 1.4 ± 0.4 % ID, the SUV heart ([2]; 2 min post injection) was 3.3 ± 0.6 and the “% ID heart” value ([2]; 60 min post injection) was 0.1 ± 0.0 % ID. The SUV heart ([2]; 60 min post injection) was 0.1 ± 0.0, the “% ID intestines” value ([2]; 2 min post injection) was 9.7 ± 0.4 % ID and the “% ID intestines” value ([2]; 60 min post injection) was 63.8 % ID and 63.8 ± 2.9 % ID. The “% ID kidneys” value ([2]; 2 min post injection) was 8.3 ± 1.6 % ID, the SUV kidneys ([2]; 2 min post injection) was 5.1 ± 0.7 and the “% ID kidneys” value ([2]; 60 min post injection) was 1.0 ± 0.3 % ID. The SUV kidneys ([2]; 60 min post injection) was 0.6 ± 0.1, the “% ID liver” value ([2]; 2 min post injection) was 28.3 ± 2.9 % ID and the SUV liver ([2]; 2 min post injection) was 6.0 ± 0.1. The “% ID liver” value ([2]; 60 min post injection) was 9.1 ± 3.0 % ID, the SUV liver ([2]; 60 min post injection) was 2.0 and 2.0 ± 0.5 and the “% ID lungs” value ([2]; 2 min post injection) was 1.4 ± 0.3 % ID. The SUV lungs ([2]; 2 min post injection) was 2.3 ± 0.4, the “% ID lungs” value ([2]; 60 min post injection) was 0.1 ± 0.0 % ID and the SUV lungs ([2]; 60 min post injection) was 0.2 ± 0.0. For the same compound, the “% ID pancreas” value ([2]; 2 min post injection) was 1.6 ± 0.8 % ID, the SUV pancreas ([2]; 2 min post injection) was 2.2 ± 1.0 and the “% ID pancreas” value ([2]; 60 min post injection) was 0.2 ± 0.1 % ID. The SUV pancreas ([2]; 60 min post injection) was 0.3 ± 0.0, the “% ID spleen” value ([2]; 2 min post injection) was 0.5 ± 0.2 % ID and the SUV spleen ([2]; 2 min post injection) was 2.0 ± 0.2. For the same compound, the “% ID spleen” value ([2]; 60 min post injection) was 0.03 ± 0.01 % ID, the SUV spleen ([2]; 60 min post injection) was 0.2 ± 0.0 and the “% ID stomach” value ([2]; 2 min post injection) was 1.3 ± 0.3 % ID. For the same compound, the “% ID stomach” value ([2]; 60 min post injection) was 4.2 ± 3.9 % ID, the “brain % ID 2 min/60 min ratio” value ([2]; wash-out from brain) was 18.4 and the “% of intact tracer in blood plasma” value ([3]; 2 min post injection) was 88%. For the same compound, the “% of intact tracer in blood plasma” value ([3]; 30 min post injection) was 34%.
In the case of `Cc1c(CCN2CCOCC2)c2cc(OCC[18F])ccc2n1C(=O)c1cccc(Cl)c1Cl` [[^18F]FE-GW405833], the “binding affinity for CB2” value (CB2) is given as 27 nM.
